In PubChem BioAssay (NCI):
“And” between values parts separate entries of the source, which are not always exact repeats. Identical values can stand only once.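 Exposure lasted 48 hours, with cells grown in 96-well plates and compounds tested at five concentrations. GI50 marks 50% less growth. Definition used: TGI = concentration required for complete inhibition of growth.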

Key:
Assay in all cases: growth of human tumour cells (NCI), 48 h
A498 renal = test system: A498 renal
DLD-1 colon = test system: DLD-1 colon
DMS 114 small cell lung = test system: DMS 114 small cell lung
DMS 273 small cell lung = test system: DMS 273 small cell lung
HCC-2998 colon = test system: HCC-2998 colon
HCT-15 colon = test system: HCT-15 colon
KM20L2 colon = test system: KM20L2 colon
LXFL 529 NSCLC = test system: LXFL 529 NSCLC
M19-MEL melanoma = test system: M19-MEL melanoma
RXF 393 renal = test system: RXF 393 renal
RXF-631 renal = test system: RXF-631 renal
SNB-78 CNS = test system: SNB-78 CNS
XF 498 CNS = test system: XF 498 CNS
SK-OV-3 ovarian = test system: SK-OV-3 ovarian
HOP-18 NSCLC = test system: HOP-18 NSCLC

Row | Structure (SMILES) | TGI (A498 renal) [µM] | TGI (DLD-1 colon) [µM] | TGI (DMS 114 small cell lung) [µM] | TGI (DMS 273 small cell lung) [µM] | TGI (HCC-2998 colon) [µM] | TGI (HCT-15 colon) [µM] | TGI (KM20L2 colon) [µM] | TGI (LXFL 529 NSCLC) [µM] | TGI (M19-MEL melanoma) [µM] | TGI (RXF 393 renal) [µM] | TGI (RXF-631 renal) [µM] | TGI (SNB-78 CNS) [µM] | TGI (XF 498 CNS) [µM] | TGI (SK-OV-3 ovarian) [µM] | TGI (HOP-18 NSCLC) [µM] | GI50 (A498 renal) [µM] | GI50 (HCC-2998 colon) [µM] | GI50 (HCT-15 colon) [µM] | GI50 (RXF 393 renal) | GI50 (SK-OV-3 ovarian) [µM]
1 | O=[N+]([O-])c1ccc(CN=C2NNS(=O)(=O)c3ccccc32)cc1 | > 100 | > 100 | > 100 | > 100 | > 100 | > 100 | > 100 | > 100 | > 100 | > 100 | > 100 | > 100 | > 100 |  |  |  |  |  |  | 
2 | CN(C)CCN(C)C(=O)C1CCCN1C(=O)OCc1ccccc1 (stereo not drawn) | > 100 | > 100 | > 100 | > 100 | > 100 | > 100 | > 100 | > 100 | > 100 | > 100 |  | > 100 | > 100 | > 100 |  |  |  |  |  | 
3 | CC(=O)Oc1ccc(Nn2c3ccccc3c3ccccc32)c(C)c1 |  | > 100 | 79.8 | 51.9 | 79.5 | 82.4 | 78.9 | > 100 | > 100 | 80.4 |  | 91.2 | 77.3 | > 100 | 75.8 |  |  |  |  | 
4 | CCCCCCCC(CC(=O)NC(CO)C(=O)NC(CO)CC(C)C)OC(=O)CC(CCCCCCC)OC(=O)CC(CCCCCCC)OC1OC(C)C(O)C(OC2OC(C)C(O)C(O)C2O)C1O (stereo not drawn) | 35 | 31.7 | 16.5 | 24 | 43.1 | 34.6 | 32.1 | 18.1 | 23.3 | 31.2 |  | 39.1 |  | 31.5 | 32.1 |  |  |  |  | 
5 | COc1cc(/C=C/C(=O)c2ccc(F)cc2)ccc1OCCCCCOc1cc2c(cc1OC)C(=O)N1CCCC1C=N2 (stereo not drawn) | 0.331 |  |  |  | 0.0382 | 1.41 |  |  |  | 0.283 |  |  |  | 6.06 |  | 0.138 | < 0.0174 | 0.0588 | 0.11 µM | 0.212
6 | CCCCCCCc1cscc1-c1cscc1Br | > 100 |  |  |  | 75.6 | > 100 |  |  |  | 67 |  |  |  | > 100 |  |  |  |  |  | 
7 | O=C1C=CC(=O)c2cc(Sc3ccccc3)c(=O)c(Sc3ccccc3)cc21 | > 100 | > 100 | 53.7 | > 100 | > 100 | > 100 | > 100 | 70.3 | > 100 | 51.2 |  |  | > 100 | > 100 | > 100 |  |  |  |  | 
8 | O=C(O)C1=CN(c2ccncc2)C(c2ccco2)=CC1c1ccccc1[N+](=O)[O-] (stereo not drawn) | 28.7 |  |  |  | 3.62 | 4.75 |  |  |  | 15.5 |  |  |  | 33.6 |  |  |  |  |  | 
9 | S=C(Nc1ccc2c(c1)oc1ccccc12)c1cccs1 | > 100 |  |  |  | > 100 | > 100 |  |  |  | > 100 |  |  |  | > 100 |  |  |  |  |  | 
10 | C=CC(=O)NCNC(=O)C=C | > 100 | > 100 | > 100 | > 100 | > 100 | > 100 | > 100 | > 100 | > 100 |  |  |  | > 100 | > 100 | > 100 |  |  |  |  | 
11 | C=C(CCC/C(C)=C/C=C/[C@H](C)CCCc1ccoc1)C[C@@H]1OC(=O)[C@H](C)[C@@H]1O | 17.2 |  |  |  | 37 | 27.4 |  |  |  | 14.2 |  |  |  | 16.8 |  |  |  |  |  | 
12 | Cc1c(-c2nc(N)c(C#N)c(N)c2C#N)c(=O)oc2ccccc12 | > 100 |  |  |  | > 100 | > 100 |  |  |  | > 100 |  |  |  | > 100 |  |  |  |  |  | 
13 | C(=N\NC1=NCCN1)/c1cccc2cc3ccncc3nc12 | 23.9 |  |  |  | 18.3 | 13.1 |  |  |  | 13.2 |  |  |  | 23.5 |  |  |  |  |  | 
14 | COCC12CCC(OC)C34C5CC6(O)C(OC)C=C(C5C6OC(=O)c5ccccc5)C(C(OC)C13)C4N(C)C2 (stereo not drawn) | > 100 |  |  |  | > 100 | > 100 |  |  |  | > 100 |  |  |  | > 100 |  |  |  |  |  | 
15 | CCOC(=O)c1cn(CC)c2ccc3ccsc3c2c1=O | > 100 |  |  |  | > 100 | > 100 |  |  |  | > 100 |  |  |  | > 100 |  |  |  |  |  | 
16 | C/C(=N\O)C1CC2C=C(C#N)C1N(Cc1ccccc1)C2 (stereo not drawn) | > 100 |  |  |  | > 100 | > 100 |  |  |  | > 100 |  |  |  | > 100 |  |  |  |  |  | 
17 | [N-]=[N+]=CC(=O)OCC1NC(=O)C(COC(=O)C=[N+]=[N-])NC1=O (stereo not drawn) | > 100 |  |  |  | > 100 | > 100 |  |  |  | > 100 |  |  |  | > 100 |  |  |  |  | 15.8 µM and > 100 µM | 
18 | CSC1=C(C#N)C(=O)N(c2ccc(C)cc2)C(=O)C1C#N (stereo not drawn) | > 100 |  |  |  | > 100 | > 100 |  |  |  | > 100 |  |  |  | > 100 |  |  |  |  |  | 
19 | O=C1CCCC2=C1CC1=C(CCCC1=O)N2c1ccc([N+](=O)[O-])cc1 | > 100 |  |  |  | > 100 | > 100 |  |  |  | > 100 |  |  |  | > 100 |  |  |  |  |  | 
20 | O=C(O)c1cccc(OCCOc2cccc(C(=O)O)c2[N+](=O)[O-])c1[N+](=O)[O-] | > 100 |  |  |  | > 100 | > 100 |  |  |  | > 100 |  |  |  | > 100 |  |  |  |  |  | 
21 | C#C[C@]1(O)[C@@H](CO)O[C@@H](n2ccc(N)nc2=O)[C@@H]1O | 0.54 |  |  |  | 0.196 | > 100 |  |  |  | 2.12 |  |  |  | > 100 |  |  |  |  |  | 
22 | COC(=O)[C@@H](OC(C)=O)[C@@H](OC(C)=O)c1nnc2ccc(Cl)nn12 | > 100 |  |  |  | > 100 | > 100 |  |  |  | > 100 |  |  |  | > 100 |  |  |  |  |  | 
23 | COc1ccc(-n2c(Cn3nnc(-c4cccnc4)n3)nn(C3OC(COC(=O)c4ccccc4)C(OC(=O)c4ccccc4)C3OC(=O)c3ccccc3)c2=S)cc1 (stereo not drawn) | > 100 |  |  |  | > 100 | > 100 |  |  |  | > 100 |  |  |  | > 100 |  |  |  |  |  | 
24 | Cc1cc(C)c(S(=O)(=O)N(CCCN)OCCON(CCCN)S(=O)(=O)c2c(C)cc(C)cc2C)c(C)c1 | 53.9 |  |  |  | 4.24 | 70.5 |  |  |  | > 100 |  |  |  | 24.8 |  |  |  |  |  | 
25 | CO[C@H]1O[C@@H]2OC3(C)CCC4[C@H](C)CCC([C@H]1C)[C@]42OO3 (stereo partly drawn) | > 100 |  |  |  | > 100 | > 100 |  |  |  | > 100 |  |  |  | > 100 |  |  |  |  |  | 
26 | Cc1[nH]c2nc3c(ncn3COCCO)c(=O)n2c1C(c1ccccc1)(c1ccccc1)c1ccccc1 | 33.3 |  |  |  | 26.4 | > 100 |  |  |  | 26.2 |  |  |  | 32.8 |  |  |  |  |  | 
